In PubChem BioAssay (NCI) one finds GI50 and TGI data, which are given here for 20 compounds.

“And” between values parts separate entries of the source, which are not always exact repeats. Equal entries are not always repeated.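 Each compound was tested at five concentrations against cells in 96-well plates for 48 hours. GI50 = concentration required for 50% inhibition of growth. At the TGI there is no net growth.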

Some test systems named below: OVCAR-8 ovarian; NCI/ADR-RES ovarian; MCF7 breast; SK-MEL-28 melanoma; HCT-116 colon; HCC-2998 colon; COLO 205 colon; MDA-MB-231 breast; HT29 colon; SR leukemia.
Experiment in all cases: DTP human tumour cell line panel, 48 h

`COC1/C=C/OC2(C)Oc3c(C)c(O)c4c(O)c(c(/C=N/Nc5ccc([N+](=O)[O-])cc5[N+](=O)[O-])c(O)c4c3C2=O)NC(=O)C(C)=C/C=C/C(C)C(O)C(C)C(O)C(C)C(OC(C)=O)C1C` (centres undefined): the GI50 is 1.41 µM with OVCAR-8 ovarian; 22.2 µM in the test on NCI/ADR-RES ovarian; 2 µM in the test with MCF7 breast; 1.45 µM in the test with SK-MEL-28 melanoma; 0.955 µM in the test with HCT-116 colon; 5.05 µM in the test on HCC-2998 colon. Besides, the GI50 in the test on COLO 205 colon was 2.8 µM; with MDA-MB-231 breast, 1.32 µM. Moreover, the TGI is 3.93 µM in the test with OVCAR-8 ovarian; above 50 µM in the test on NCI/ADR-RES ovarian; above 50 µM in the test on MCF7 breast; 5.23 µM in the test on SK-MEL-28 melanoma; 1.9 µM in the test on HCT-116 colon; 11.6 µM with HCC-2998 colon. The TGI in the test on COLO 205 colon came to 10.5 µM; with MDA-MB-231 breast it was 4.01 µM.
For `CCN(CC)N=Nc1c(C(N)=O)n[nH]c1C`, the TGI in the test on OVCAR-8 ovarian, in the test on NCI/ADR-RES ovarian, in the test with MCF7 breast, in the test with HT29 colon, in the test on SK-MEL-28 melanoma and in the test with HCT-116 colon was above 100 µM throughout. Besides, the TGI in the test on HCC-2998 colon, with COLO 205 colon and in the test on MDA-MB-231 breast was above 100 µM each time.
Turning to `CCCCCCCCCCCC(=O)OCCOCCOCCOCCOCCOCc1ccccc1`, the concentration for total growth inhibition (TGI) in the test on OVCAR-8 ovarian, with HT29 colon, with SK-MEL-28 melanoma, with HCT-116 colon, with HCC-2998 colon and with SR leukemia was above 100 µM throughout. The TGI with COLO 205 colon was above 100 µM.
As to `CC1(C(=O)O)CCC[C@@]2(C)C1CC[C@@]1(C)c3cocc3CCC21` (some centres undefined), the TGI in the test with OVCAR-8 ovarian, in the test on HT29 colon, with SK-MEL-28 melanoma, in the test on HCT-116 colon, in the test with HCC-2998 colon and in the test with SR leukemia was above 100 µM each time. The TGI with COLO 205 colon was above 100 µM.
Regarding `Cc1ccc(S(=O)(=O)OC[C@@H]2CO2)cc1`, the TGI in the test with OVCAR-8 ovarian, in the test with HT29 colon, in the test on SK-MEL-28 melanoma, in the test with HCT-116 colon, in the test on HCC-2998 colon and in the test on SR leukemia was above 100 µM in each case. The compound further showed a TGI in the test with COLO 205 colon above 100 µM.
Consider `Nc1nc(-n2c(-c3ccccc3)nc3c(Br)cc(Br)cc3c2=O)nnc1-c1cccc(Cl)c1Cl`, for which the GI50 is 17.2 µM with OVCAR-8 ovarian; 2.01 µM in the test with NCI/ADR-RES ovarian; 4.9 µM in the test with MCF7 breast; 4.82 µM with HT29 colon; above 100 µM in the test with SK-MEL-28 melanoma; 2.43 µM in the test with HCT-116 colon. The results for the GI50 with HCC-2998 colon, with COLO 205 colon and with MDA-MB-231 breast were 3.42 µM, 8.88 µM and 4.22 µM, respectively. In addition, the TGI with OVCAR-8 ovarian was above 100 µM; with NCI/ADR-RES ovarian, 6.88 µM; with MCF7 breast it was above 100 µM; in the test with HT29 colon, above 100 µM; in the test on SK-MEL-28 melanoma, above 100 µM; in the test with HCT-116 colon, 7.06 µM. The TGI in the test on HCC-2998 colon is 15.5 µM; in the test on COLO 205 colon, above 100 µM; in the test on MDA-MB-231 breast, 18.3 µM.
For the compound `O=C(O)CCC(NC(=O)c1ccc(Nc2nc3ccccc3nc2-c2cccs2)cc1)C(=O)O` (centres undefined), the total growth inhibition concentration (TGI) in the test on OVCAR-8 ovarian, in the test on HT29 colon, with SK-MEL-28 melanoma, in the test with HCT-116 colon, with HCC-2998 colon and in the test with SR leukemia was above 100 µM in each case.
`CNC(=S)OCCC(C)CCCC(C)C` (centres undefined): the TGI in the test with OVCAR-8 ovarian came to 31.5 µM; in the test with HT29 colon it was 31.3 µM; in the test on SK-MEL-28 melanoma, 41 µM; in the test with HCT-116 colon, 30.7 µM; in the test on HCC-2998 colon it was 32.2 µM; in the test with SR leukemia, 31.9 µM.
Regarding `CCCCCCCCCCCCCC(=O)OC(/C=C/C(C)C)C(O)C(O)C(OC)C(=O)NC1CCCCN(C)C1=O` (centres undefined), the concentration for total growth inhibition (TGI) in the test on OVCAR-8 ovarian is 8.44 µM and > 49 µM; in the test on HT29 colon, 7.01 µM and > 49 µM; in the test on SK-MEL-28 melanoma, 7.64 µM and > 49 µM; in the test with HCT-116 colon it was 5.46 µM and > 49 µM; in the test with HCC-2998 colon, 5.54 µM and > 49 µM; with SR leukemia it was 4.78 µM and 5.75 µM. For the same compound, the GI50 with SK-MEL-28 melanoma is above 49 µM; in the test with HCT-116 colon it was above 49 µM; in the test on SR leukemia, 1120 nM.
Turning to `CC1CCc2nc[nH]c(=O)c21` (centres undefined), the GI50 in the test on OVCAR-8 ovarian, in the test on NCI/ADR-RES ovarian, in the test with MCF7 breast, in the test on HT29 colon, in the test with SK-MEL-28 melanoma and in the test on HCT-116 colon was above 100 µM in each case. For the same compound, the GI50 in the test on HCC-2998 colon, with COLO 205 colon and in the test with MDA-MB-231 breast was above 100 µM throughout. The TGI in the test with OVCAR-8 ovarian, in the test on NCI/ADR-RES ovarian, in the test with MCF7 breast, with HT29 colon, in the test with SK-MEL-28 melanoma and in the test with HCT-116 colon was above 100 µM throughout. For the same compound, the TGI with HCC-2998 colon, with COLO 205 colon and in the test on MDA-MB-231 breast was above 100 µM in each case.
Take `O=C1CC(NC(=O)C(F)(F)F)c2c(Br)sc(N3CCNCC3)c21` (centres undefined): the TGI in the test on OVCAR-8 ovarian, with NCI/ADR-RES ovarian, with MCF7 breast, in the test on HT29 colon, in the test with SK-MEL-28 melanoma and in the test with HCT-116 colon was above 100 µM in each case. Also, the TGI in the test on HCC-2998 colon, in the test with COLO 205 colon and in the test on MDA-MB-231 breast was above 100 µM each time.
`COc1ccc(CC2c3cc4c(cc3CCN2C)OCO4)c(C=O)c1OC` (centres undefined): the TGI in the test on OVCAR-8 ovarian, with NCI/ADR-RES ovarian, in the test with MCF7 breast, in the test on HT29 colon, in the test on SK-MEL-28 melanoma and in the test with HCT-116 colon was above 100 µM in each case. The TGI in the test with HCC-2998 colon, in the test with COLO 205 colon and with MDA-MB-231 breast was above 100 µM throughout.
For `CCOC1Oc2ccccc2C(=O)/C1=C/Nc1ccc(C(C)=O)cc1` (centres undefined), the GI50 is 16.3 µM in the test with OVCAR-8 ovarian; 15.6 µM with NCI/ADR-RES ovarian; 26.7 µM with MCF7 breast; 36.3 µM in the test on HT29 colon; 44.8 µM with SK-MEL-28 melanoma; 22.8 µM with HCT-116 colon. In addition, the GI50 in the test on HCC-2998 colon was 15.9 µM; with COLO 205 colon, 55.2 µM; with MDA-MB-231 breast, 20 µM. For the same compound, the TGI in the test with OVCAR-8 ovarian was 45 µM; in the test on NCI/ADR-RES ovarian, 38.6 µM; in the test on MCF7 breast it was above 100 µM; in the test with HT29 colon, above 100 µM; with SK-MEL-28 melanoma it was above 100 µM; in the test with HCT-116 colon, above 100 µM. Moreover, the TGI is 35.4 µM in the test on HCC-2998 colon, above 100 µM with COLO 205 colon and 47.8 µM in the test on MDA-MB-231 breast.
Take `CN(C)N=Nc1ccc(C(N)=O)cc1`: the total growth inhibition concentration (TGI) in the test on OVCAR-8 ovarian, in the test on HT29 colon, with SK-MEL-28 melanoma, with HCT-116 colon, in the test on HCC-2998 colon and in the test on SR leukemia was above 100 µM each time. The same compound had a TGI in the test with COLO 205 colon above 100 µM.
For `COc1ccccc1N1C(=O)C2c3[nH]c4ccccc4c3C3CCC(C(C)(C)C)CC3C2C1=O` (centres undefined), the TGI in the test on OVCAR-8 ovarian, in the test on HT29 colon, in the test on SK-MEL-28 melanoma, in the test on HCT-116 colon, with HCC-2998 colon and in the test with SR leukemia was above 100 µM throughout. In the test with COLO 205 colon, this compound registered a TGI above 100 µM.
For `CNS(=O)(=O)NNS(=O)(=O)c1ccccc1`, the TGI in the test on OVCAR-8 ovarian, in the test with HT29 colon, in the test on SK-MEL-28 melanoma, in the test on HCT-116 colon, in the test on HCC-2998 colon and in the test on SR leukemia was above 100 µM in each case. Further, the TGI in the test on COLO 205 colon is above 100 µM.
Take `COC(=O)/C(C#N)=C1\NC(=O)c2ccccc21`: the TGI in the test on OVCAR-8 ovarian, in the test on HT29 colon, in the test with SK-MEL-28 melanoma, in the test with HCT-116 colon, in the test with HCC-2998 colon and with SR leukemia was above 100 µM throughout. This compound also yielded a TGI in the test on COLO 205 colon above 100 µM.
Consider `O=[N+]([O-])c1cccc(-c2csc(NNC3=NC/C(=C/c4ccc5c(c4)OCO5)S3)n2)c1`, for which the TGI was 47.2 µM in the test with OVCAR-8 ovarian; 53 µM in the test on NCI/ADR-RES ovarian; above 100 µM with MCF7 breast; 65.4 µM with HT29 colon; above 100 µM in the test with HCT-116 colon; above 100 µM in the test on HCC-2998 colon. The TGI in the test on COLO 205 colon is 98.7 µM; in the test on MDA-MB-231 breast, 93.9 µM.
Turning to `CCOC(=O)C(C)(C)Oc1ccc2c(-c3ccccc3)cc(=O)oc2c1`, the TGI with OVCAR-8 ovarian was above 100 µM; in the test on SK-MEL-28 melanoma, above 100 µM; with HCT-116 colon, above 100 µM; in the test with HCC-2998 colon it was above 100 µM; in the test on SR leukemia, 88.7 µM; in the test on COLO 205 colon, 42.7 µM.
In the case of `Cc1nc2sccn2c1-c1csc(Nc2ccccc2Cl)n1`, the GI50 in the test on OVCAR-8 ovarian was 6.05 µM; with NCI/ADR-RES ovarian, 2.61 µM; in the test with MCF7 breast, 2.81 µM; in the test on HT29 colon, 3.08 µM; in the test on SK-MEL-28 melanoma it was 6.24 µM; in the test with HCT-116 colon, 3.3 µM. Further, the GI50 in the test with HCC-2998 colon was 6.25 µM; in the test with COLO 205 colon, 5.87 µM; in the test with MDA-MB-231 breast, 3.33 µM. Moreover, the TGI in the test with OVCAR-8 ovarian is 45.2 µM; in the test on NCI/ADR-RES ovarian it was 14.5 µM; in the test with MCF7 breast, 23 µM; in the test on HT29 colon it was 13.6 µM; in the test with SK-MEL-28 melanoma, above 100 µM; with HCT-116 colon it was 16.2 µM. The TGI with HCC-2998 colon amounted to 45.3 µM; in the test on COLO 205 colon it was 21 µM; in the test on MDA-MB-231 breast, 27 µM.
